Measured values as given in ChEMBL document CHEMBL4354814 (J Med Chem, 2019).
The source made the active and inactive calls. No cut-off for these calls is given here.

Key:
Acetylcholinesterase [1] = target: T1, Acetylcholinesterase (Homo sapiens, UniProt P22303)
Description: Inhibition of recombinant human AChE assessed as inhibition constant for enzyme-inhibitor complex using acetylthiocholine iodide as substrate preincubated for 20 mins followed by substrate addition and measured for 3 mins by spectrophotometry based Lineweaver-Burk plot analysis

Acetylcholinesterase [2] = target: T1, Acetylcholinesterase; remark: listed apart in the source
Description: Inhibition of recombinant human AChE assessed as inhibition constant for enzyme-substrate-inhbitor complex using acetylthiocholine iodide as substrate preincubated for 20 mins followed by substrate addition and measured for 3 mins by spectrophotometry based Lineweaver-Burk plot analysis

Cannabinoid receptor 2 [3] = target: T2, Cannabinoid receptor 2 (Homo sapiens, UniProt P34972); test: Agonist activity at CB2R in human U266 cells assessed as reduction in MIF gene expression at 50 uM incubated for 2 hrs by qRT-PCR analysis; type: cell-based
Cannabinoid receptor 2 [4] = target: T2, Cannabinoid receptor 2; test: Agonist activity at CB2R in human U266 cells assessed as reduction in STAT3 gene expression at 50 uM incubated for 2 hrs by qRT-PCR analysis; type: cell-based
Cannabinoid receptor 2 [5] = target: T2, Cannabinoid receptor 2; test: Agonist activity at CB2R in human U266 cells assessed as reduction in MIF gene expression at 50 uM pretreated for 30 mins with AM630 and incubated for 2 hrs by qRT-PCR analysis; type: cell-based
Cannabinoid receptor 2 [6] = target: T2, Cannabinoid receptor 2; test: Agonist activity at CB2R in human U266 cells assessed as reduction in STAT3 gene expression at 50 uM pretreated for 30 mins with AM630 incubated for 2 hrs by qRT-PCR analysis; type: cell-based
Cannabinoid receptor 2 [7] = target: T2, Cannabinoid receptor 2; test: Agonist activity at human CB2R expressed in CHO-K1 cells assessed as increase in intracellular calcium mobilization by calcein4-AM dye based fluorescence assay relative to control; type: functional, cell-based
[8] = target: Cannabinoid receptor 1 (Homo sapiens) (UniProt P21554); test: Agonist activity at human CB1R expressed in CHO-K1 cells assessed as increase in intracellular calcium mobilization by calcein4-AM dye based fluorescence assay; type: functional, cell-based
[9] = target: Cholinesterase (Homo sapiens) (UniProt P06276); test: Inhibition of human BChE at 10 uM using butyrylthiocholine iodide as substrate preincubated for 20 mins followed by substrate addition and measured for 3 mins by spectrophotometry based Ellman's method relative to control
Acetylcholinesterase [10] = target: T1, Acetylcholinesterase; test: Inhibition of recombinant human AChE at 10 uM using acetylthiocholine iodide as substrate preincubated for 20 mins followed by substrate addition and measured for 3 mins by spectrophotometry based Ellman's method relative to control
[11] = target: Cannabinoid receptor 1 (Homo sapiens) (UniProt P21554); test: Binding affinity at human CB1R expressed in CHO cells at 10 uM incubated for 3 hrs by microbeta scintillation counting relative to control; type: cell-based
Cannabinoid receptor 2 [12] = target: T2, Cannabinoid receptor 2
Cannabinoid receptor 2 [13] = target: T2, Cannabinoid receptor 2; test: biochemical

T2 sequence (P34972 whole entry): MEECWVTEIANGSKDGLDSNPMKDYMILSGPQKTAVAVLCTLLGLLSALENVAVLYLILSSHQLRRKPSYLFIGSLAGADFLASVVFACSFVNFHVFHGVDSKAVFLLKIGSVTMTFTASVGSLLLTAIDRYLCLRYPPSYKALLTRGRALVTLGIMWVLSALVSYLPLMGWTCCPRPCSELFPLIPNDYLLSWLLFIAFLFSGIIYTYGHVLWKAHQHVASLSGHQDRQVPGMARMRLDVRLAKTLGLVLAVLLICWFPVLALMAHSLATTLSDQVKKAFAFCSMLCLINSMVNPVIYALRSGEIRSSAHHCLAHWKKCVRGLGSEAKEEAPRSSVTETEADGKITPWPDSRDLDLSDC
T1 sequence (P22303 whole entry): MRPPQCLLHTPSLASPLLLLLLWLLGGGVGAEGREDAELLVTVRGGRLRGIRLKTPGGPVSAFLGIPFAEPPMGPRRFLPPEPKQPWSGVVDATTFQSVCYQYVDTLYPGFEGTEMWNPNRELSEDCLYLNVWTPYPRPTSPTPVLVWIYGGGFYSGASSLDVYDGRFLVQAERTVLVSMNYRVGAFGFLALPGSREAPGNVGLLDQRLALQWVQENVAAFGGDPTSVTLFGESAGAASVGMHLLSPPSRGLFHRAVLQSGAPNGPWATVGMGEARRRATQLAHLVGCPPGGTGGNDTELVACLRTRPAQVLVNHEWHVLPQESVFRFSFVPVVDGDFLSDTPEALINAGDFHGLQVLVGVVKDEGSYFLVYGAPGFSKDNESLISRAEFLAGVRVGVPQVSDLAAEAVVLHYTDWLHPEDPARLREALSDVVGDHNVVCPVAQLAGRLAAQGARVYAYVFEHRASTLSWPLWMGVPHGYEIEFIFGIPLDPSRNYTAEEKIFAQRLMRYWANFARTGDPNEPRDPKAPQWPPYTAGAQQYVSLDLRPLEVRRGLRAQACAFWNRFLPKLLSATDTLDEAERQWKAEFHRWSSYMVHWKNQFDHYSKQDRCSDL
Cannabinoid receptor 1 (Homo sapiens), sequence (P21554 whole entry): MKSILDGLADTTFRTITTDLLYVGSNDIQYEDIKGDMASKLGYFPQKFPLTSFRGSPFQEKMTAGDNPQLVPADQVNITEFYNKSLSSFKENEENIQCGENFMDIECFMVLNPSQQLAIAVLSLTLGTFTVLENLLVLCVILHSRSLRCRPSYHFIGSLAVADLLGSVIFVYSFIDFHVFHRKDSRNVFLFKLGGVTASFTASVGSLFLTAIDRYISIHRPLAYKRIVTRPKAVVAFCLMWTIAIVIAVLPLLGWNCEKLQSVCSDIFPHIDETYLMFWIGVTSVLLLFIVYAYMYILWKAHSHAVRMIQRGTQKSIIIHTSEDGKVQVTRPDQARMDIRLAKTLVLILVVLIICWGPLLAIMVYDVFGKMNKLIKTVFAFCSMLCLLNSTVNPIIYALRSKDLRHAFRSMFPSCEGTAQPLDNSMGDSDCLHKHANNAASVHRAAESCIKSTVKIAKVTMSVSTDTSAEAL
Cholinesterase (Homo sapiens), sequence (P06276 whole entry): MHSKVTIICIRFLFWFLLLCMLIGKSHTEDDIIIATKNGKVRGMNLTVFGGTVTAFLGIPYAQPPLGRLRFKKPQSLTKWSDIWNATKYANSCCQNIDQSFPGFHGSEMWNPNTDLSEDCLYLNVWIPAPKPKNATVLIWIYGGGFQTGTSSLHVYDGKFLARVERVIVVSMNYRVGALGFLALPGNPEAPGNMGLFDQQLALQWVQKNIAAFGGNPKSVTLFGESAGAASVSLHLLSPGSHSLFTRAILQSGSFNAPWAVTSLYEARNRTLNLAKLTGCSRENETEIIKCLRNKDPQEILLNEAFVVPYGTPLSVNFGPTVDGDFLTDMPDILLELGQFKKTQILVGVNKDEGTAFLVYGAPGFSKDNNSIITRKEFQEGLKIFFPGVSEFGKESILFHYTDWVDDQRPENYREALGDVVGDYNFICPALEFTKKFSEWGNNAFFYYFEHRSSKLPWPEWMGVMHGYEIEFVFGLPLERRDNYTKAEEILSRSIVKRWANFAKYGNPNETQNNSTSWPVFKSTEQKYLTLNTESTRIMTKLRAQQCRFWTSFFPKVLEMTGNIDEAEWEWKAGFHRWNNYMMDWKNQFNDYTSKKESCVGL

| Structure (SMILES) | Ki (Acetylcholinesterase [1]) [µM] | Ki (Acetylcholinesterase [2]) [µM] | Activity (Cannabinoid receptor 2 [3]) | Activity (Cannabinoid receptor 2 [4]) | Activity (Cannabinoid receptor 2 [5]) | Activity (Cannabinoid receptor 2 [6]) | Emax (Cannabinoid receptor 2 [7]) [%] | Activity [8] | inhibition [9] [%] | inhibition (Acetylcholinesterase [10]) [%] | Activity [11] [%] | EC50 (Cannabinoid receptor 2 [12]) [µM] | Ki (Cannabinoid receptor 2 [13]) [µM] |
| --- | --- | --- | --- | --- | --- | --- | --- | --- | --- | --- | --- | --- | --- |
| CCOc1ccc(Cc2nc3cc(C(=O)NCCSSCCNc4c5c(nc6ccccc46)CCCC5)ccc3n2CCC(C)C)cc1 | 0.0167 | 0.0279 | – | – | – | – | – | – | – | – | – | – | – |
| CCOc1ccc(Cc2nc3cc(C(=O)N(CC)CC)ccc3n2CCCCCCNc2c3c(nc4ccccc24)CCCC3)cc1 | 0.0885 | 0.206 | Active | Active | Active | Active | 51 | inactive | – | – | – | – | – |
| CCOc1ccc(Cc2nc3cc(C(=O)NCCOCCOCCNc4c5c(nc6ccccc46)CCCC5)ccc3n2CCC(C)C)cc1 | – | – | Active | Active | Active | Active | – | – | – | – | – | – | – |
| CCOc1ccc(Cc2nc3cc(C(=O)N(CC)CC)ccc3n2CCC(C)C)cc1 | – | – | Active | Active | Active | Active | – | – | < 10 | < 10 | 24 | – | – |
| CCOc1ccc(Cc2nc3cc(C(=O)NCCCCNc4c5c(nc6ccccc46)CCCC5)ccc3n2CCC(C)C)cc1 | – | – | Active | Active | Active | Active | 39 | inactive | – | – | – | 0.911 | – |
| CCOc1ccc(Cc2nc3cc(C(=O)N(CC)CC)ccc3n2CCCNc2c3c(nc4ccccc24)CCCC3)cc1 | – | – | – | – | – | – | – | – | – | – | – | – | 30.7 |
